Assay results taken from patent publication US11246907B2, “Immunosuppressive agents and their use in therapy” (Norwegian University of Science and Technology, priority 2013, dated 2022).
Ends that are not written are not given here.

How the values were obtained:
[1] = system: RPMI-8226; assay: Cell growth/cytotoxicity, multiple myeloma cell line RPMI-8226; assay type: cell-based
Method: Cells were seeded into 96-well plates and ATX-101, kinase inhibitors (SB203580 and BIRB0796), and polyIC were added alone or in combination at the indicated concentrations. Cells were exposed continuously and harvested every day for the next four days using the MTT (3-(4.5-Dimethylthiazol-2-yl)-2.5 diphenyl-tetrazolium bromide) assay (Gilljam et al., 2009, supra). The average from at least 4 wells was used to calculate cell survival.
To further elucidate whether ATX-101 directly affected the MAPK and PI3K pathways, we analyzed the phosphorylation levels of downstream kinases in JJN-3 cells at different time points after ATX-101 addition. The phosphorylation of Akt and the p70 S6 kinase (downstream of mTOR) were both decreased by ATX-101 treatment.

[2] = system: IFN-β; assay: IFN-β ELISA on supernatants of stimulated monocytes; assay type: cell-based, human; details: LPS- and polyIC-stimulated monocytes; 4 μM (donor 1: 6 μM), 4 h
Method: Measured cytokine levels were normalized to cytokine levels from monocytes stimulated with TLR ligand alone. A two fold or higher increase in cytokine level after TLR stimulation was defined as cytokine induction. […] Isolated monocytes were stimulated with 10 ng/ml LPS and 40 μg/ml polyIC alone and in combination with 4 μM ATX-101 for 4 h. […] DRAQS was used for nuclear staining. Bar, 5 μm.
Peripheral blood mononuclear cells were isolated from A+ buffy coats (Blood Bank, St. Olav's University Hospital, Trondheim, Norway) by density gradient centrifugation (Lymphoprep; Axis-Shield PoC, Oslo, Norway). Mononucleated cells were seeded at 4 million cells/ml in serum-free RPMI 1640 supplemented with glutamine and gentamicin. […]
Monocytes were stimulated as described above. IFN-β was measured in supernatants with the VeriKine-HSTMHuman IFN-β Serum ELISA kit (Pestka Biomedical Laboratories, Piscataway, N.J., USA) according to the manufacturer's instructions with the following adaptions: the amount of supernatant was doubled from 50 to 100 μl; sample buffer was reduced from 50 to 25 μl; and antibody solution was reduced from 50 to 25 μl (reducing assay diluent, keeping same volume of antibody concentrate and diluent additive). The OD was measured at 450 nm.

[3] = system: Akt Ser473 phosphorylation; assay: Western blot of Akt Ser473 phosphorylation in peripheral blood monocytes; assay type: cell-based, human; details: 4 μM ATX-101, 4 h
Method: Data is from one representative donor out of three; and (B-E) show multiplex analysis of cytokine levels produced by peripheral blood monocytes stimulated with 10 ng/ml LPS (B and D, same donor) and 40 μg/ml polyIC (C and E, same donor) after 4 h. (B and C) Stimulated-monocytes were treated with 4 μM ATX-101, 10 μM SB203580 (p38 MAPK inhibitor), and combination of ATX-101 and SB203580. (D and E) Stimulated-monocytes were treated with 4 μM ATX-101, 5 and 10 μM LY294002 (PI3K class I inhibitor), and combination of ATX-101 and LY294002. Measured cytokine levels were normalized to cytokine levels from monocytes stimulated with TLR ligand alone. A two fold or higher increase in cytokine level after TLR stimulation was defined as cytokine induction. # Value is too low to be visible in the column diagram; ? cytokine measurement was out of range. Data is from representative experiments out of two.
Mononucleated cells were seeded and stimulated as described above. JJN-3 cells were treated with ATX-101 (6 μM) for 4 h. HaCaT cells were treated with ATX-101 (12 μM), polylC (2 μg/ml), and LPS (100 ng/ml) for 4 h. […] The proteins were visualized with the Odyssey infrared imaging system (LI-COR) and quantified using Odyssey Image Studio V2. […]

Ac-MDRWLVKWKKKRKIRRRRRRRRRRR [ATX-101] was tested, and the “cytotoxic effects of melphalan in combination with kinase inhibitors and ATX-101” value [1] was “enhanced the cytotoxic effects of melphalan”, the “growth-inhibitory effects of ERK5 and MEK1 inhibitors in combination with ATX-101” value [1] was “increased the growth-inhibitory effects of ERK5 and MAPK kinase 1 (MEK1) inhibitors” and the IFN-β secretion [2] was “decreased the IFN-β secretion”. The “LPS- and polyIC-induced and basal Akt phosphorylation” value [3] was “reduced”.
